US20050096311A1, “Compositions and methods for treatment of nervous system disorders” (CNS Response, priority 2003, published 2005)

Legend:
norepinephrine uptake = norepinephrine uptake (Homo sapiens, UniProt P23975); conditions: cited from earlier work
pain of migraine = conditions: oral or intrapulmonary administration; cited from earlier work
[1] = system: Parkinson's disease symptoms; conditions: cited from earlier work
[2] = cited from earlier work
[3] = cited from earlier work; remark: listed apart in the source
[4] = system: nervous system disorder symptoms in affected patients; test: Randomized double-blind study in naive patients presenting at least one symptom of a nervous system disorder (Example 1); assay type: in vivo
From the text: The design of this study is a randomized double-blind protocol in which a first set of clinicians diagnosed a group of naive (i.e., previously untreated) patients presenting at least one symptom of a nervous system disorder.
A second set of clinicians will monitor the compliance of each patient and assess the presence or absence of at least one symptom of a nervous system disorder on a weekly basis throughout the treatment period. At the termination of the study a third set of clinicians will evaluate the data and document the results.
Relative to Group I, all treatment groups are expected to reduce at least one symptom of a nervous system disorder except Group IV.

[5] = biphasic elimination; cited from earlier work
[6] = formulated as a hydrochloride salt; cited from earlier work
dopamine uptake = dopamine uptake (Homo sapiens, UniProt Q01959); conditions: cited from earlier work
migraine attacks = conditions: given prophylactically; cited from earlier work

Chain of norepinephrine uptake (P23975 whole entry): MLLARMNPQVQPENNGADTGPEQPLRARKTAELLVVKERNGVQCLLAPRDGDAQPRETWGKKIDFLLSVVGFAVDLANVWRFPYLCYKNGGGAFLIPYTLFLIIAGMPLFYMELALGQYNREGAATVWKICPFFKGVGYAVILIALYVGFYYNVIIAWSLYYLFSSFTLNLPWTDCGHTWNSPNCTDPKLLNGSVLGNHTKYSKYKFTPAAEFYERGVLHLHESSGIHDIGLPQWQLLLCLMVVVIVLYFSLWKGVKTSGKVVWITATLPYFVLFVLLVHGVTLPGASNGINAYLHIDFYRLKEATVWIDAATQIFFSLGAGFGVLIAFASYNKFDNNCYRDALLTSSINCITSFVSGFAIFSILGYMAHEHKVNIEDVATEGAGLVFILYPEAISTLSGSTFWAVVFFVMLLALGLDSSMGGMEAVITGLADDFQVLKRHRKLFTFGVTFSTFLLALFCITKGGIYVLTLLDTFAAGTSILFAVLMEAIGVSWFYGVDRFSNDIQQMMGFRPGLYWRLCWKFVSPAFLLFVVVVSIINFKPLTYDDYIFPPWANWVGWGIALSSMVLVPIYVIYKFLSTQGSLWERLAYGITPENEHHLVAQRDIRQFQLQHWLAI
Chain of dopamine uptake (Q01959 whole entry): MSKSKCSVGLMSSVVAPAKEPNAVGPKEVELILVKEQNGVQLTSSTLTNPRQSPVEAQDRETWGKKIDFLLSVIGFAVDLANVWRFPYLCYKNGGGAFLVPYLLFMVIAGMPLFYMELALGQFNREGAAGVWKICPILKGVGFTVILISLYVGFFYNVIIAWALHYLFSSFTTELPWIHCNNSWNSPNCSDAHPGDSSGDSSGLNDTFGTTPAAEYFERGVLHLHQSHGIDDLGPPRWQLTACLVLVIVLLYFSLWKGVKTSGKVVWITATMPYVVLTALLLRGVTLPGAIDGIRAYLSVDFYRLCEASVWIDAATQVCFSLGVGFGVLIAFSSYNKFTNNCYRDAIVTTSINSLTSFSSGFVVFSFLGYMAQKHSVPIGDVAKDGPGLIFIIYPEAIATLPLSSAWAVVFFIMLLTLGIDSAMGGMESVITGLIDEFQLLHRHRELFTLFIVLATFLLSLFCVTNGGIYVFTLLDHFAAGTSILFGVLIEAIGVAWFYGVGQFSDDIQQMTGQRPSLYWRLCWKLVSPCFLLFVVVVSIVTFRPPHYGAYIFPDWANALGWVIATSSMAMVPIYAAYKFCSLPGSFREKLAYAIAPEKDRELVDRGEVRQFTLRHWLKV

C[C@@H]1NC(C)(C)CO[C@@]1(O)c1cccc(Cl)c1 [(S,S)-hydroxybupropion]
inhibition of norepinephrine uptake (norepinephrine uptake): effective inhibitor of only norepinephrine uptake

CN1C[C@H](C(=O)N[C@]2(C)O[C@@]3(O)[C@@H]4CCCN4C(=O)[C@H](Cc4ccccc4)N3C2=O)C=C2c3cccc4[nH]cc(c34)C[C@H]21 [Ergotamine]
time to pain relief (pain of migraine): 5 h

N[C@@H](Cc1ccc(O)c(O)c1)C(=O)O [Levodopa, L-3,4-dihydroxyphenylalanine]
reduction in symptomology ([1]; Parkinson's disease patients): 50%
treated patients showing the reduction in symptomology ([1]; Parkinson's disease patients): 75%

NC(=O)N1c2ccccc2CC(O)c2ccccc21 (stereo not shown) [MHD, 10, 11-dihydro-10-OH-carbazepine]
increase in the non-protein bound plasma MHD concentration ([2]; co-administration of oxcarbazepine and vilooxazoine): 11%
plasma protein binding ([3]; distribution between blood cell compartments): low level of plasma protein binding
mean non-protein bound MHD fraction ([3]; epileptic patients): approximately 56.7 +/−5.5%

CC(NC(C)(C)C)C(=O)c1cccc(Cl)c1 (stereo not drawn) [bupropion, m-chloro-α-(t-butylamino)propiophenone]
Percent Reduction In Nervous System Disorder Symptoms In Affected Patients ([4]; Symptom EIGHT): 25 ± 2.5%
Percent Reduction In Nervous System Disorder Symptoms In Affected Patients ([4]; Symptom FIVE): 25 ± 2.5%
Percent Reduction In Nervous System Disorder Symptoms In Affected Patients ([4]; Symptom FOUR): 25 ± 2.5%
Percent Reduction In Nervous System Disorder Symptoms In Affected Patients ([4]; Symptom ONE): 25 ± 2.5%
Percent Reduction In Nervous System Disorder Symptoms In Affected Patients ([4]; Symptom SEVEN): 25 ± 2.5%
Percent Reduction In Nervous System Disorder Symptoms In Affected Patients ([4]; Symptom SIX): 25 ± 2.5%
Percent Reduction In Nervous System Disorder Symptoms In Affected Patients ([4]; Symptom THREE): 25 ± 2.5%
Percent Reduction In Nervous System Disorder Symptoms In Affected Patients ([4]; Symptom TWO): 25 ± 2.5%
elimination half-life [5]: 11 to 14 h
redistribution half-life [5]: about one
solubility [6]: water-soluble

C[C@@](Cc1ccc(O)c(O)c1)(NN)C(=O)O [carbidopa]
reduction of the dose of levodopa ([1]; concurrent administration of carbidopa): ≤ 75%

C[C@H]1NC(C)(C)CO[C@]1(O)c1cccc(Cl)c1 [hydroxybupropion]
inhibition of dopamine uptake (dopamine uptake): effective inhibitor
inhibition of norepinephrine uptake (norepinephrine uptake): effective inhibitor

NC(=O)N1c2ccccc2CC(=O)c2ccccc21 [oxcarbazepine]
plasma half-life ([2]; 600 mg oxcarbazepine dose): approximately 19.3±6.2 hours
Percent Reduction In Nervous System Disorder Symptoms In Affected Patients ([4]; Symptom EIGHT): 10 ± 1%
Percent Reduction In Nervous System Disorder Symptoms In Affected Patients ([4]; Symptom FIVE): 10 ± 1%
Percent Reduction In Nervous System Disorder Symptoms In Affected Patients ([4]; Symptom FOUR): 10 ± 1%
Percent Reduction In Nervous System Disorder Symptoms In Affected Patients ([4]; Symptom ONE): 10 ± 1%
Percent Reduction In Nervous System Disorder Symptoms In Affected Patients ([4]; Symptom SEVEN): 10 ± 1%
Percent Reduction In Nervous System Disorder Symptoms In Affected Patients ([4]; Symptom SIX): 10 ± 1%
Percent Reduction In Nervous System Disorder Symptoms In Affected Patients ([4]; Symptom THREE): 10 ± 1%
Percent Reduction In Nervous System Disorder Symptoms In Affected Patients ([4]; Symptom TWO): 10 ± 1%

CC(C)NCC(O)COc1cccc2ccccc12 (stereo not shown) [propranolol]
patients with reduced frequency and intensity of migraine attacks (migraine attacks): 70%
